In ChEMBL document CHEMBL3259619, “Antibacterial activity of a series of N2,N4-disubstituted quinazoline-2,4-diamines” (J Med Chem, 2014):
Values after ≈ are worked out from the molar mass of the structure shown. Active and inactive are the calls of the source.

What was measured:
Staphylococcus aureus [1] = test: Antimicrobial activity against methicillin-resistant Staphylococcus aureus CBD-635 assessed as complete inhibition of bacterial growth at 5 times MIC after overnight incubation in presence of tetrahydrofolic acid; format: functional, organism-based
Staphylococcus aureus [2] = test: Antimicrobial activity against methicillin-resistant Staphylococcus aureus CBD-635 assessed as complete inhibition of bacterial growth after overnight incubation; format: functional
Staphylococcus aureus [3] = test: Antimicrobial activity against methicillin-resistant Staphylococcus aureus CBD-635 assessed as zone of inhibition at 5 mg/ml after 24 hrs by disk diffusion assay; format: functional; conditions: for zone of inhibition at 5000 µg/mL: CBD-635, 24 h, read-out: IZ
Staphylococcus aureus [4] = test: Antimicrobial activity against N2,N4-dibenzylquinazoline-2,4-diamine-induced methicillin-resistant Staphylococcus aureus CBD-635 mutant M5 assessed as complete inhibition of bacterial growth after overnight incubation; format: functional
Staphylococcus aureus [5] = test: Antimicrobial activity against N2,N4-dibenzylquinazoline-2,4-diamine-induced methicillin-resistant Staphylococcus aureus CBD-635 mutant M2 assessed as complete inhibition of bacterial growth after overnight incubation; format: functional
Staphylococcus aureus [6] = test: Antimicrobial activity against N2,N4-dibenzylquinazoline-2,4-diamine-induced methicillin-resistant Staphylococcus aureus CBD-635 mutant M4 assessed as complete inhibition of bacterial growth after overnight incubation; format: functional
Staphylococcus aureus [7] = test: Antimicrobial activity against N2,N4-dibenzylquinazoline-2,4-diamine-induced methicillin-resistant Staphylococcus aureus CBD-635 mutant M6 assessed as complete inhibition of bacterial growth after overnight incubation; format: functional
Staphylococcus aureus [8] = test: Antimicrobial activity against N2,N4-dibenzylquinazoline-2,4-diamine-induced methicillin-resistant Staphylococcus aureus CBD-635 mutant M3 assessed as complete inhibition of bacterial growth after overnight incubation; format: functional
Staphylococcus aureus [9] = test: Antimicrobial activity against N2,N4-dibenzylquinazoline-2,4-diamine-induced methicillin-resistant Staphylococcus aureus CBD-635 mutant M1 assessed as complete inhibition of bacterial growth after overnight incubation; format: functional
Staphylococcus aureus [10] = test: Antimicrobial activity against N2,N4-dibenzylquinazoline-2,4-diamine-induced methicillin-resistant Staphylococcus aureus CBD-635 mutant M7 assessed as complete inhibition of bacterial growth after overnight incubation; format: functional

Structure (SMILES)	inhibition (Staphylococcus aureus [1])	MIC (Staphylococcus aureus [2])	zone of inhibition at 5000 µg/mL (Staphylococcus aureus [3])	inhibition zone (IZ) (Staphylococcus aureus [3])	further results
CC(C)Nc1nc(Nc2ccccc2)c2ccccc2n1	inactive	36 µM (≈ 10 µg/mL)	10 mm	–	–
COc1ccc2nc(NC(C)C)nc(NCc3ccco3)c2c1	inactive	80 µM (≈ 25 µg/mL)	10 mm	–	–
CNc1nc(NC2CCCC2)nc2ccccc12	inactive	–	–	inactive	–
FC(F)(F)CNc1nc(NCc2ccco2)c2ccccc2n1	inactive	–	–	inactive	–
Clc1ccc(CNc2nc(NCc3ccc(Cl)cc3)c3ccc(Cl)cc3n2)cc1	inactive	68 µM (≈ 30.2 µg/mL)	–	–	–
OCCNc1nc(NCc2ccco2)c2ccccc2n1	inactive	–	–	inactive	–
CNc1nc(NC(C)C)c2ccccc2n1	inactive	–	–	inactive	–
c1ccc(Nc2nc(Nc3ccccc3)c3ccccc3n2)cc1	inactive	32 µM (≈ 10 µg/mL)	10 mm	–	–
CC(C)Nc1nc(NC2CCCC2)nc2ccccc12	inactive	190 µM (≈ 51.4 µg/mL)	8 mm	–	–
COc1ccc2c(NCc3ccco3)nc(NC(C)C)nc2c1	inactive	–	–	inactive	–
Cc1ccc2c(NCc3ccco3)nc(NC(C)C)nc2c1	inactive	–	–	inactive	–
COc1ccc(CNc2nc(NCc3ccccc3)nc3ccccc23)cc1	inactive	68 µM (≈ 25.2 µg/mL)	–	–	MIC (Staphylococcus aureus [4]): 27 µM (≈ 10 µg/mL); MIC (Staphylococcus aureus [5]): 27 µM (≈ 10 µg/mL); MIC (Staphylococcus aureus [6]): 2.7 µM (≈ 1 µg/mL); MIC (Staphylococcus aureus [7]): 2.7 µM (≈ 1 µg/mL); MIC (Staphylococcus aureus [8]): 27 µM (≈ 10 µg/mL); MIC (Staphylococcus aureus [9]): 27 µM (≈ 10 µg/mL); MIC (Staphylococcus aureus [10]): 27 µM (≈ 10 µg/mL)
Cc1ccc(CNc2nc(NCc3ccc(C)cc3)c3ccccc3n2)cc1	inactive	27 µM (≈ 9.95 µg/mL)	–	–	MIC (Staphylococcus aureus [4]): 2.7 µM (≈ 0.995 µg/mL); MIC (Staphylococcus aureus [5]): 27 µM (≈ 9.95 µg/mL); MIC (Staphylococcus aureus [6]): 2.7 µM (≈ 0.995 µg/mL); MIC (Staphylococcus aureus [7]): 2.7 µM (≈ 0.995 µg/mL); MIC (Staphylococcus aureus [8]): 2.7 µM (≈ 0.995 µg/mL); MIC (Staphylococcus aureus [9]): 27 µM (≈ 9.95 µg/mL); MIC (Staphylococcus aureus [10]): 2.7 µM (≈ 0.995 µg/mL)
COc1ccc(CNc2nc(NCc3ccccc3)c3ccc(Cl)cc3n2)cc1	inactive	22 µM (≈ 8.91 µg/mL)	–	–	–
CNc1nc(NC)c2ccccc2n1	inactive	–	–	inactive	–
c1coc(CNc2nc(NC3CCC3)nc3ccccc23)c1	inactive	–	–	inactive	–
COc1ccc(CNc2nc(NCc3ccc(OC)cc3)c3ccccc3n2)cc1	inactive	25 µM (≈ 10 µg/mL)	–	–	MIC (Staphylococcus aureus [4]): 125 µM (≈ 50.1 µg/mL); MIC (Staphylococcus aureus [5]): > 250 µM; MIC (Staphylococcus aureus [6]): > 250 µM; MIC (Staphylococcus aureus [7]): 125 µM (≈ 50.1 µg/mL); MIC (Staphylococcus aureus [8]): > 250 µM; MIC (Staphylococcus aureus [9]): > 250 µM; MIC (Staphylococcus aureus [10]): > 250 µM
Cc1ccc2nc(NC(C)C)nc(NCc3ccco3)c2c1	inactive	–	–	inactive	–
CNc1nc(NCc2ccco2)c2ccccc2n1	inactive	–	–	inactive	–
c1ccc(CNc2nc(Nc3ccccc3)c3ccccc3n2)cc1	inactive	31 µM (≈ 10.1 µg/mL)	10 mm	–	–
Clc1ccc(Nc2nc(NCc3ccco3)c3ccccc3n2)cc1	inactive	29 µM (≈ 10.2 µg/mL)	10 mm	–	–
CC(C)Nc1nc(NC2CC2)c2ccccc2n1	inactive	–	–	inactive	–

Structure (SMILES)	inhibition (Staphylococcus aureus [1])	MIC (Staphylococcus aureus [2])	zone of inhibition at 5000 µg/mL (Staphylococcus aureus [3])	inhibition zone (IZ) (Staphylococcus aureus [3])	further results
CSCCNc1nc(NC(C)C)nc2ccccc12	inactive	> 360 µM	9 mm	–	–
c1ccc(CNc2nc(NCc3ccco3)c3ccccc3n2)cc1	inactive	30 µM (≈ 9.91 µg/mL)	11 mm	–	–
COc1ccc(CNc2nc(NCc3ccccc3)c3ccccc3n2)cc1	inactive	0.67 µM (≈ 0.248 µg/mL)	–	–	MIC (Staphylococcus aureus [4]): 270 µM (≈ 100 µg/mL); MIC (Staphylococcus aureus [5]): 0.67 µM (≈ 0.248 µg/mL); MIC (Staphylococcus aureus [6]): 270 µM (≈ 100 µg/mL); MIC (Staphylococcus aureus [7]): 270 µM (≈ 100 µg/mL); MIC (Staphylococcus aureus [8]): 0.67 µM (≈ 0.248 µg/mL); MIC (Staphylococcus aureus [9]): 0.67 µM (≈ 0.248 µg/mL); MIC (Staphylococcus aureus [10]): 270 µM (≈ 100 µg/mL)
Cc1ccc(Nc2nc(NCc3ccco3)c3ccccc3n2)cc1	inactive	30 µM (≈ 9.91 µg/mL)	9 mm	–	–
Clc1ccc(CNc2nc(NCc3ccccc3)c3ccccc3n2)cc1	inactive	27 µM (≈ 10.1 µg/mL)	–	–	MIC (Staphylococcus aureus [4]): 2.7 µM (≈ 1.01 µg/mL); MIC (Staphylococcus aureus [5]): 2.7 µM (≈ 1.01 µg/mL); MIC (Staphylococcus aureus [6]): 2.7 µM (≈ 1.01 µg/mL); MIC (Staphylococcus aureus [7]): 2.7 µM (≈ 1.01 µg/mL); MIC (Staphylococcus aureus [8]): 2.7 µM (≈ 1.01 µg/mL); MIC (Staphylococcus aureus [9]): 27 µM (≈ 10.1 µg/mL); MIC (Staphylococcus aureus [10]): 2.7 µM (≈ 1.01 µg/mL)
CNc1nc(NC2CC2)nc2ccccc12	inactive	–	–	inactive	–
CC(C)Nc1nc(NC2CC2)nc2ccccc12	inactive	–	–	inactive	–
CC(C)Nc1nc(NCc2ccco2)c2c(Cl)cccc2n1	inactive	> 78 µM	9 mm	–	–
CCNc1nc(NC(C)C)nc2ccccc12	inactive	–	–	inactive	–
CCNc1nc(NC(C)C)c2ccccc2n1	inactive	–	–	inactive	–
CNc1nc(NCc2ccco2)nc2ccccc12	inactive	390 µM (≈ 99.2 µg/mL)	10 mm	–	–
CC(C)Nc1nc(NCc2ccco2)c2cc(Cl)ccc2n1	inactive	32 µM (≈ 10.1 µg/mL)	11 mm	–	–
c1coc(CNc2nc(NC3CC3)nc3ccccc23)c1	inactive	–	–	inactive	–
CC(C)Nc1nc(NCCO)nc2ccccc12	inactive	–	–	inactive	–
CC(C)Nc1nc(NC(C)(C)C)c2ccccc2n1	inactive	–	–	inactive	–
c1coc(CNc2nc(NC3CCCCC3)nc3ccccc23)c1	inactive	78 µM (≈ 25.1 µg/mL)	10 mm	–	–
CC(C)Nc1nc(NCc2ccco2)c2ccc(Cl)cc2n1	inactive	32 µM (≈ 10.1 µg/mL)	12 mm	–	–
CNc1nc(NCCO)nc2ccccc12	inactive	–	–	inactive	–
CCCCNc1nc(NCc2ccccc2)c2ccc(Cl)cc2n1	inactive	0.73 µM (≈ 0.249 µg/mL)	–	–	MIC (Staphylococcus aureus [4]): 0.73 µM (≈ 0.249 µg/mL); MIC (Staphylococcus aureus [5]): 0.73 µM (≈ 0.249 µg/mL); MIC (Staphylococcus aureus [6]): 0.73 µM (≈ 0.249 µg/mL); MIC (Staphylococcus aureus [7]): 0.73 µM (≈ 0.249 µg/mL); MIC (Staphylococcus aureus [8]): 0.73 µM (≈ 0.249 µg/mL); MIC (Staphylococcus aureus [9]): 0.73 µM (≈ 0.249 µg/mL); MIC (Staphylococcus aureus [10]): 0.73 µM (≈ 0.249 µg/mL)
COc1cccc2nc(NC(C)C)nc(NCc3ccco3)c12	inactive	> 80 µM	9 mm	–	–
CC(C)Nc1nc(NCc2ccco2)c2ccccc2n1	inactive	180 µM (≈ 50.8 µg/mL)	10 mm	–	–
CC(C)Nc1nc(NC2CCCC2)c2ccccc2n1	inactive	37 µM (≈ 10 µg/mL)	10 mm	–	–

Structure (SMILES)	inhibition (Staphylococcus aureus [1])	MIC (Staphylococcus aureus [2])	zone of inhibition at 5000 µg/mL (Staphylococcus aureus [3])	inhibition zone (IZ) (Staphylococcus aureus [3])	further results
CNc1nc(NC(C)C)nc2ccccc12	inactive	–	–	inactive	–
COc1ccc(CNc2nc(NCc3ccc(Cl)cc3)c3ccc(Cl)cc3n2)cc1	inactive	51 µM (≈ 22.4 µg/mL)	–	–	–
CC(C)Nc1nc(NCc2ccco2)c2cccc(Cl)c2n1	inactive	32 µM (≈ 10.1 µg/mL)	10 mm	–	–
CCCCNc1nc(Nc2ccccc2)nc2ccccc12	inactive	34 µM (≈ 9.94 µg/mL)	12 mm	–	–
CC(C)Nc1nc(NCc2ccccc2)nc2ccccc12	inactive	34 µM (≈ 9.94 µg/mL)	13 mm	–	–
CC(C)Nc1nc(N(C)C)c2ccccc2n1	inactive	–	–	inactive	–
CC(C)Nc1nc(NCc2ccccc2)c2ccccc2n1	inactive	34 µM (≈ 9.94 µg/mL)	13 mm	–	–
CC(C)Nc1nc(NCC(F)(F)F)c2ccccc2n1	inactive	–	–	inactive	–
CCOC(=O)CNc1nc(NC(C)C)nc2ccccc12	inactive	–	–	inactive	–
CC(C)Nc1nc(NC(C)C)c2ccccc2n1	inactive	–	–	inactive	–
Cc1cccc2nc(NC(C)C)nc(NCc3ccco3)c12	inactive	–	–	inactive	–
CC(C)(C)Nc1nc(NCc2ccco2)c2ccccc2n1	inactive	340 µM (≈ 101 µg/mL)	9 mm	–	–
CC(C)Nc1nc(NCc2ccco2)nc2ccccc12	inactive	35 µM (≈ 9.88 µg/mL)	12 mm	–	–
COc1cccc2c(NCc3ccco3)nc(NC(C)C)nc12	inactive	–	–	inactive	–
CC(C)Nc1nc(NCC2CCCO2)c2ccccc2n1 (configuration not stated)	inactive	–	–	inactive	–
Clc1ccc(Nc2nc(NCc3ccco3)nc3ccccc23)cc1	inactive	29 µM (≈ 10.2 µg/mL)	10 mm	–	–
Cc1cccc2c(NCc3ccco3)nc(NC(C)C)nc12	inactive	340 µM (≈ 101 µg/mL)	10 mm	–	–
c1coc(CNc2nc(NC3CCCC3)nc3ccccc23)c1	inactive	160 µM (≈ 49.3 µg/mL)	12 mm	–	–
CCCCNc1nc(Nc2ccccc2)c2ccccc2n1	inactive	34 µM (≈ 9.94 µg/mL)	14 mm	–	–
CCNc1nc(NCc2ccco2)c2ccccc2n1	inactive	–	–	inactive	–
